In publication PMC8344761 (Journal of Enzyme Inhibition and Medicinal Chemistry, 2021):

Experiments:
[1] = tested on: Huh7 cells xenografted onto CAM; test: Huh7-xenografted CAM tumour model; format: in vivo, chick; details: 10 µM final concentration on CAM; Huh7 xenograft
Procedure: Cancer cell xenograft onto chick chorioallantoic membrane (CAM), an in vivo tumour model, was used to evaluate anti-tumour efficacy of compounds. Fertilised chicken eggs purchased from Byeolbichon Farm (Gyeongbuk, South Korea) were incubated at 37 °C with 55% relative humidity. On day 9 of egg incubation (embryonic day 9, E9), a small hole was made in the shell over the air sac after the selection of bifurcated vessels. Another hole was made on the broadside using a needle by applying negative pressure from the wider part, creating false air sac. Using a grinding wheel (Dremel, Racine, WI), a small window (1 cm^2) was created in the eggshell above the false air sac. For generation of xenograft CAM tumour model, Huh7 cells (1.5 × 10^6 cells/CAM) were inoculated on the CAM with or without test drugs (10 µM final concentration). On day 13 of egg incubation (E13), tumour tissues attached to CAM were resected from the embryo and harvested. Photographs of tumour as well as blood vessel branches were taken using optical microscope (Olympus Corporation, Tokyo, Japan). Tumour tissues were weighted and the number of vessel branch points within the tumour region was counted.

- melting point: 265 °C
SMILES: CNC(=O)c1cc(Oc2c(C)nc(NC(=O)Nc3ccc(Cl)c(C(F)(F)F)c3)c(C)c2C)ccn1 [Compound 4, 4-((6–(3-(4-Chloro-3-(trifluoromethyl)phenyl)ureido)-2,4,5-trimethylpyridin-3-yl)oxy)-N-methylpicolinamide]
- inhibitory effect on tumour weight [1]: weaker than that of sorafenib
